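Protocol summary: plate cells (96-well), add compound at 5 concentrations, incubate 48 h, interpolate endpoints linearly. GI50: concentration for 50% inhibition of growth.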 Calls of active or inactive are those of the source. No stated cut-off is given here; in the data, active = GI50 up to about 1.1 µM and inactive = higher.
Legend:
Assay in all cases: inhibition of tumour cell growth, NCI panel, 48 h
HCC 2998 = test system: HCC 2998
HOP-18 = test system: HOP-18
U-251 = test system: U-251
UO-31 = test system: UO-31
IGROV-1 = test system: IGROV-1
CCRF-CEM = test system: CCRF-CEM
SF-295 = test system: SF-295
LOX IMVI = test system: LOX IMVI
K562 = test system: K562
RPMI-8226 = test system: RPMI-8226
HCT-15 = test system: HCT-15
TK-10 = test system: TK-10
DMS-114 = test system: DMS-114
HOP-92 = test system: HOP-92
COLO 205 = test system: COLO 205
OVCAR-4 = test system: OVCAR-4
Malme-3M = test system: Malme-3M
A498 = test system: A498
SR = test system: SR
SK-OV-3 = test system: SK-OV-3
OVCAR-5 = test system: OVCAR-5
MOLT-4 = test system: MOLT-4
SF-268 = test system: SF-268
M14 = test system: M14
HL-60 = test system: HL-60
HOP-62 = test system: HOP-62
KM12 = test system: KM12
SNB-75 = test system: SNB-75
NCI-H226 = test system: NCI-H226
SK-MEL-2 = test system: SK-MEL-2
NCI-H522 = test system: NCI-H522
SF-539 = test system: SF-539
SK-MEL-28 = test system: SK-MEL-28
ACHN = test system: ACHN
DLD-1 = test system: DLD-1
SNB-78 = test system: SNB-78
UACC-257 = test system: UACC-257
LXFL 529 = test system: LXFL 529
OVCAR-8 = test system: OVCAR-8
EKVX = test system: EKVX
HCT-116 = test system: HCT-116
UACC-62 = test system: UACC-62
NCI-H23 = test system: NCI-H23
HT-29 = test system: HT-29
SN12C = test system: SN12C
SW-620 = test system: SW-620
XF498 = test system: XF498
NCI-H460 = test system: NCI-H460
786-0 = test system: 786-0
SK-MEL-5 = test system: SK-MEL-5
OVCAR-3 = test system: OVCAR-3
RXF 393 = test system: RXF 393
SNB-19 = test system: SNB-19
KM-20L2 = test system: KM-20L2
A549 = test system: A549
DMS-273 = test system: DMS-273
CAKI-1 = test system: CAKI-1

`O=C(/C(=C\c1ccc(Cl)cc1)c1ccccc1)c1ccccc1` was tested, and the GI50 (HCC 2998) was 40.5 µM (inactive), the GI50 (HOP-18) was > 100 µM (inactive) and the GI50 (U-251) was 65.5 µM (inactive). The GI50 (UO-31) was 65.2 µM (inactive), the GI50 (IGROV-1) was > 100 µM (inactive) and the GI50 (CCRF-CEM) was > 100 µM (inactive). The GI50 (SF-295) was 94.4 µM (inactive), the GI50 (LOX IMVI) was 29.9 µM (inactive) and the GI50 (K562) was 54.1 µM (inactive). The GI50 (RPMI-8226) was 38.2 µM (inactive), the GI50 (HCT-15) was 90.4 µM and the GI50 (TK-10) was > 100 µM (inactive). For the same compound, the GI50 (DMS-114) was 21.4 µM (inactive), the GI50 (HOP-92) was 4.74 µM (inactive) and the GI50 (COLO 205) was > 100 µM (inactive). The GI50 (OVCAR-4) was 26.3 µM (inactive), the GI50 (Malme-3M) was 57 µM (inactive) and the GI50 (A498) was 65 µM (inactive). The GI50 (SR) was 40.8 µM (inactive), the GI50 (SK-OV-3) was > 100 µM (inactive) and the GI50 (OVCAR-5) was 22.7 µM (inactive). For the same compound, the GI50 (MOLT-4) was 51.3 µM (inactive), the GI50 (SF-268) was > 100 µM (inactive) and the GI50 (M14) was 73.5 µM (inactive). The GI50 (HL-60) was 15 µM (inactive), the GI50 (HOP-62) was 63.2 µM (inactive) and the GI50 (KM12) was 22 µM (inactive). For the same compound, the GI50 (SNB-75) was 88.9 µM (inactive), the GI50 (NCI-H226) was 39.6 µM (inactive) and the GI50 (SK-MEL-2) was 11.7 µM (inactive). For the same compound, the GI50 (NCI-H522) was 31.6 µM (inactive), the GI50 (SF-539) was > 100 µM (inactive) and the GI50 (SK-MEL-28) was > 100 µM (inactive). The GI50 (ACHN) was 38.8 µM (inactive), the GI50 (DLD-1) was 93.5 µM (inactive) and the GI50 (SNB-78) was > 100 µM (inactive). The GI50 (UACC-257) was 42.5 µM (inactive), the GI50 (LXFL 529) was 55.5 µM (inactive) and the GI50 (OVCAR-8) was > 100 µM (inactive). For the same compound, the GI50 (EKVX) was 39.3 µM (inactive), the GI50 (HCT-116) was 29.7 µM (inactive) and the GI50 (UACC-62) was > 100 µM (inactive). For the same compound, the GI50 (NCI-H23) was 72.6 µM (inactive), the GI50 (HT-29) was 43.8 µM (inactive) and the GI50 (SN12C) was > 100 µM (inactive). For the same compound, the GI50 (SW-620) was 57.8 µM (inactive), the GI50 (XF498) was 37.6 µM (inactive) and the GI50 (NCI-H460) was 53.8 µM (inactive). The GI50 (786-0) was 79.8 µM (inactive).

For `O=C1OC(c2cccc(C(F)(F)F)c2)(c2cccc(C(F)(F)F)c2)c2ccc3ccccc3c21`, the GI50 (HCC 2998) was > 10 µM (inactive), the GI50 (HOP-18) was > 10 µM (inactive) and the GI50 (U-251) was 8.39 µM (inactive). For the same compound, the GI50 (UO-31) was > 10 µM (inactive), the GI50 (IGROV-1) was > 10 µM (inactive) and the GI50 (CCRF-CEM) was 7.85 µM (inactive). The GI50 (SK-MEL-5) was 4.59 µM (inactive), the GI50 (OVCAR-3) was 4.23 µM (inactive) and the GI50 (SF-295) was 15.2 µM (inactive). For the same compound, the GI50 (LOX IMVI) was > 10 µM (inactive), the GI50 (K562) was 8.04 µM (inactive) and the GI50 (RPMI-8226) was 4.24 µM (inactive). The GI50 (HCT-15) was 9.25 µM, the GI50 (TK-10) was > 10 µM (inactive) and the GI50 (DMS-114) was 6.18 µM (inactive). The GI50 (HOP-92) was 28.8 µM (inactive), the GI50 (COLO 205) was > 10 µM (inactive) and the GI50 (OVCAR-4) was > 10 µM (inactive). For the same compound, the GI50 (RXF 393) was 5.65 µM (inactive), the GI50 (Malme-3M) was 4.79 µM (inactive) and the GI50 (A498) was > 10 µM (inactive). The GI50 (SR) was > 10 µM (inactive), the GI50 (SNB-19) was 11.2 µM (inactive) and the GI50 (KM-20L2) was 7.67 µM (inactive). The GI50 (SK-OV-3) was > 10 µM (inactive), the GI50 (OVCAR-5) was > 10 µM (inactive) and the GI50 (MOLT-4) was 4.66 µM (inactive). The GI50 (A549) was > 10 µM (inactive), the GI50 (SF-268) was 9.59 µM (inactive) and the GI50 (M14) was > 10 µM (inactive). For the same compound, the GI50 (HL-60) was 3.56 µM (inactive), the GI50 (HOP-62) was > 10 µM (inactive) and the GI50 (KM12) was 79.1 µM (inactive). For the same compound, the GI50 (SNB-75) was > 10 µM (inactive), the GI50 (NCI-H226) was 85.5 µM (inactive) and the GI50 (DMS-273) was > 10 µM (inactive). The GI50 (SK-MEL-2) was > 10 µM (inactive), the GI50 (NCI-H522) was > 10 µM (inactive) and the GI50 (SF-539) was > 100 µM (inactive). The GI50 (SK-MEL-28) was > 10 µM (inactive), the GI50 (ACHN) was 3.64 µM (inactive) and the GI50 (DLD-1) was > 10 µM (inactive). For the same compound, the GI50 (SNB-78) was > 10 µM (inactive), the GI50 (UACC-257) was 13.1 µM (inactive) and the GI50 (LXFL 529) was 8.24 µM (inactive). For the same compound, the GI50 (OVCAR-8) was > 10 µM (inactive), the GI50 (EKVX) was > 10 µM (inactive) and the GI50 (HCT-116) was 8.45 µM (inactive). For the same compound, the GI50 (UACC-62) was > 10 µM (inactive), the GI50 (NCI-H23) was 7.85 µM (inactive) and the GI50 (HT-29) was > 10 µM (inactive). The GI50 (SN12C) was > 10 µM (inactive), the GI50 (SW-620) was > 10 µM (inactive) and the GI50 (CAKI-1) was 26.7 µM (inactive). The GI50 (XF498) was > 100 µM (inactive), the GI50 (NCI-H460) was > 10 µM (inactive) and the GI50 (786-0) was > 10 µM (inactive).
